{"source": "patent US20140005119A1", "about": "“COMPOSITIONS AND METHODS FOR INHIBITING THE ACTIVITY OF P110a MUTANT PROTEINS” (Case Western Reserve University, priority 2012, published 2014)", "key": {"IRS1 phosphorylation": {"tested_on": "IRS1 phosphorylation", "assay": "Immunoblot of treated cells, IRS1 phosphorylation", "type": "cell-based, human", "experimental": "FIG. 4(A-F) illustrate: (A) Schematic diagram of linear and stapled WT and mutant peptides derived from p110α (SEQ ID NOs: 5, 6, 7 and 8). (B) Immunoblots of cell lysates immunoprecipitated with beads conjugated with anti-FLAG antibodies and then blotted with the indicated antibodies. Linear or stapled WT and mutant peptide were added into culture medium of the p110α E545K 3×FLAG KI cells for 16 hr. (C) Immunoblots of cell lysates immunoprecipitated with anti-p110α antibodies and then blotted with the indicated antibodies. Vaco481 CRC cells were treated with the stapled mutant peptides at the indicated concentration. (D) Immunoblots of cell lysates blotted with the indicated antibodies. The indicated cell lines were treated with the stapled mutant peptide. (E) Immunoblots of cell lysates blotted with the indicated antibodies. […]\nFor Co-immunoprecipitation (Co-IP), cells were harvested, washed with PBS, and then lysed in IP buffer (50 mMTris [pH 7.4], 150 mMNaCl, 5 mMEDTA [pH 8.0], 0.5% NP40, 1 mM PMSF, complete Protease Inhibitor Cocktail tablet [Roche]; supplemented with phosphatase inhibitors [1 mM Na3VO4, 20 mM NaF, 0.1 mM b-glycerophosphate, 20 mM sodium pyrophosphate] when necessary). […] Lysates were then cleared by centrifugation (14,000 rpm, 10 min) and protein concentration in supernatants was determined with a BCA protein assay kit (Pierce, Rockford, Ill.). […]"}, "AKT phosphorylation": {"tested_on": "AKT phosphorylation", "assay": "Immunoblot of AKT phosphorylation in cancer cell lines treated with stapled peptides", "type": "cell-based, human", "parameters": "AKT phosphorylation / AKT phosphorylation at both T308 and 5473 residues: dose or concentration left out as unconfirmed", "experimental": "FIGS. 3(A-M) illustrate: (A, B) Mapping peptides (P3, SEQ ID NO: 1; P4 SEQ ID NO: 2; P5, SEQ ID NO: 3; P6, SEQ ID NO: 4) derived from mutant p110α that inhibit interaction between IRS1 and p110α E545K. The indicated peptides were added into cell lysates made from the p110α E545K 3×FLAG KI cells. Cell lysates were immunoprecipitated with beads conjugated with anti-FLAG antibodies and then blotted with anti-IRS1 antibodies. (C) Immunoblots of cell lysates made from the p110α E545K 3×FLAG KI cells. Cell lysates were immunoprecipitated with beads conjugated with anti-FLAG antibodies and then blotted with the indicated antibodies. (D) Immunoblots of cell lysate of Myc-tagged IRS1 plasmid, which co-transfected an ABD domain deletion construct of the FLAG-tagged p110α E545K mutant (ΔABD), incubated with the indicated amount of stapled p110α mutant peptides, and then immunoprecipitated with anti-FLAG antibodies and blotted with the indicated antibodies. (J, K) Immunoblot and graph of purified recombinant p110α E545K mutant proteins mixed with the indicated components and quantified using an in vitro lipid kinase assay. (L, M) Immunoblots of the indicated cell lines serum-starved, stimulated with 1 μg/ml insulin for 30 min, and then treated with or without the indicated peptides. Cell lysates were blotted with the indicated antibodies. All error bars show mean±SEM. *p<0.05, **p<0.001, t test.\nFIG. 4(A-F) illustrate: (A) Schematic diagram of linear and stapled WT and mutant peptides derived from p110α (SEQ ID NOs: 5, 6, 7 and 8). (B) Immunoblots of cell lysates immunoprecipitated with beads conjugated with anti-FLAG antibodies and then blotted with the indicated antibodies. Linear or stapled WT and mutant peptide were added into culture medium of the p110α E545K 3×FLAG KI cells for 16 hr. (C) Immunoblots of cell lysates immunoprecipitated with anti-p110α antibodies and then blotted with the indicated antibodies. Vaco481 CRC cells were treated with the stapled mutant peptides at the indicated concentration. (D) Immunoblots of cell lysates blotted with the indicated antibodies. The indicated cell lines were treated with the stapled mutant peptide. (E) Immunoblots of cell lysates blotted with the indicated antibodies. The indicated cancer cell lines were treated or untreated with stapled WT or mutant peptide at […] for 2 hr. (F) Immunoblots of cell lysates were blotted with the indicated antibodies. The indicated cancer cell lines were treated with or without […] of stapled mutant peptide for 2 hr.\nColorectal cancer (CRC) cell lines DLD1, HCT116, Vaco481 and genetically engineered CRC cell lines were maintained in McCoy's 5A medium containing 10% fetal bovine serum (FBS). Lung cancer cell line H460 and breast cancer cell line T47D were cultured in RPMI 1640 medium plus 10% of FBS. Breast cancer cell line MDA-MB361 was maintained in Leibovitz's L-15 medium with 20% FBS. Human embryonic kidney HEK293 cells were cultured in DMEM medium containing 10% FBS. Mammalian cells were transfected with Lipofectamine in accordance with the manufacturer's instructions (Invitrogen).\nFor Co-immunoprecipitation (Co-IP), cells were harvested, washed with PBS, and then lysed in IP buffer (50 mMTris [pH 7.4], 150 mMNaCl, 5 mMEDTA [pH 8.0], 0.5% NP40, 1 mM PMSF, complete Protease Inhibitor Cocktail tablet [Roche]; supplemented with phosphatase inhibitors [1 mM Na3VO4, 20 mM NaF, 0.1 mM b-glycerophosphate, 20 mM sodium pyrophosphate] when necessary). For immunoblotting (IB) of phospho-specific proteins, unless stated otherwise, cells were lysed in urea buffer (100 mM NaH2PO4, 10 mM Tris-HCl, 8 M Urea, 1 mM Na3VO4, 20 mM NaF, 0.1 mM β-glycerophosphate, 20 mM sodium pyrophosphate, supplemented with complete Protease Inhibitor Cocktail tablet [Roche], pH 8.0). Lysates were then cleared by centrifugation (14,000 rpm, 10 min) and protein concentration in supernatants was determined with a BCA protein assay kit (Pierce, Rockford, Ill.). […]"}}, "data": [{"substance": "H2N-SEITKQEK-D^549-FLW-S^553-HRHYC-COOH [stapled mutant peptide]", "values": [{"measurement": "IRS1 phosphorylation", "setting": "IRS1 phosphorylation", "result": "did not interfere"}, {"measurement": "AKT phosphorylation at both T308 and 5473 residues", "setting": "AKT phosphorylation; DLD1 cells harboring p110α E545K", "result": "reduced"}, {"measurement": "AKT phosphorylation at both T308 and 5473 residues", "setting": "AKT phosphorylation; H460 cells harboring p110α E545K", "result": "reduced"}, {"measurement": "AKT phosphorylation", "setting": "AKT phosphorylation; HCT116 cells harboring p110α H1047R", "result": "no effect"}, {"measurement": "AKT phosphorylation at both T308 and 5473 residues", "setting": "AKT phosphorylation; MDA-MB361 cells harboring p110α E545K", "result": "reduced"}, {"measurement": "AKT phosphorylation", "setting": "AKT phosphorylation; RKO cells harboring p110α H1047R", "result": "no effect"}, {"measurement": "AKT phosphorylation", "setting": "AKT phosphorylation; T47D cells harboring p110α H1047R", "result": "no effect"}, {"measurement": "AKT phosphorylation at both T308 and 5473 residues", "setting": "AKT phosphorylation; Vaco481 cell line harboring p110α Q546P", "result": "reduced"}, {"measurement": "AKT phosphorylation", "setting": "AKT phosphorylation; WT-only DLD1 cells", "result": "did not affect"}, {"measurement": "AKT phosphorylation", "setting": "AKT phosphorylation; mutant-only DLD1 cells", "result": "reduced"}, {"measurement": "AKT phosphorylation when cell lines were stimulated by insulin", "setting": "AKT phosphorylation; serum-starved, 1 μg/ml insulin for 30 min", "result": "no effect"}, {"measurement": "AKT phosphorylation in cancer cells", "setting": "AKT phosphorylation; summary statement on FIG. 4", "result": "reduced"}]}]}
